Drawing on PubChem BioAssay AID1259407 (Chemical Carcinogenesis Research Information System (CCRIS), 2018), this text covers mutagenic call for six compounds.

The source made the active and inactive calls. The rule behind the calls is not given here.

The data set has as its system CCRIS mutagenicity, Ames/micronucleus/aberration tests. Nature of the data set: CCRIS mutagenicity studies.
Where [1] appears, read: Test System: AMES SALMONELLA TYPHIMURIUM, Strain/Indicator: TA98, Metabolic Activation: HAMSTER, LIVER, S-9, AROCLOR 1254 (10%), Method: PREINCUBATION
Setting [2] is: Test System: AMES SALMONELLA TYPHIMURIUM, Strain/Indicator: TA98, Metabolic Activation: NONE, Method: PREINCUBATION
The mark [3] stands for this setting: Test System: AMES SALMONELLA TYPHIMURIUM, Strain/Indicator: TA98, Metabolic Activation: RAT, LIVER, S-9, AROCLOR 1254 (10%), Method: PREINCUBATION
Where [4] appears, read: Test System: AMES SALMONELLA TYPHIMURIUM, Strain/Indicator: TA100, Metabolic Activation: HAMSTER, LIVER, S-9, AROCLOR 1254 (10%), Method: PREINCUBATION
[5] abbreviates: Test System: AMES SALMONELLA TYPHIMURIUM, Strain/Indicator: TA100, Metabolic Activation: NONE, Method: PREINCUBATION
The mark [6] stands for this setting: Test System: AMES SALMONELLA TYPHIMURIUM, Strain/Indicator: TA100, Metabolic Activation: RAT, LIVER, S-9, AROCLOR 1254 (10%), Method: PREINCUBATION
Where [7] appears, read: Test System: AMES SALMONELLA TYPHIMURIUM, Strain/Indicator: TA1535, Metabolic Activation: NONE, Method: PREINCUBATION
The mark [8] stands for this setting: Test System: AMES SALMONELLA TYPHIMURIUM, Strain/Indicator: TA98, Metabolic Activation: NONE, Method: STANDARD PLATE.
[9] abbreviates: Test System: AMES SALMONELLA TYPHIMURIUM, Strain/Indicator: TA100, Metabolic Activation: NONE, Method: STANDARD PLATE.

Regarding `C=C(C)c1ccccc1`, the mutagenic call by setting is: (End Point: In vitro chromosomal aberrations, Test System: Chinese Hamster ovary (CHO) cells, Metabolic Activation: None) “inactive; negative”; (End Point: In vitro chromosomal aberrations, Test System: Chinese Hamster ovary (CHO) cells, Metabolic Activation: Rat, Liver, S-9, Aroclor 1254) “inactive; negative”; (End Point: In vivo micronucleus, Test System: Peripheral blood normochromatic erythrocytes, Species: Mouse, Strain/Sex: B6C3F1/ Female, Route: Inhalation) “active; positive”; (End Point: In vivo micronucleus, Test System: Peripheral blood normochromatic erythrocytes, Species: Mouse, Strain/Sex: B6C3F1/ Male, Route: Inhalation) “active; positive”; (Test System: AMES SALMONELLA TYPHIMURIUM, Strain/Indicator: TA97, Metabolic Activation: HAMSTER, LIVER, S-9, AROCLOR 1254 (10 OR 30%), Method: PREINCUBATION) “inactive; negative”; (Test System: AMES SALMONELLA TYPHIMURIUM, Strain/Indicator: TA97, Metabolic Activation: NONE, Method: PREINCUBATION) “inactive; negative”. Also, the mutagenic call is “inactive; negative” (Test System: AMES SALMONELLA TYPHIMURIUM, Strain/Indicator: TA97, Metabolic Activation: RAT, LIVER, S-9, AROCLOR 1254 (10 OR 30%), Method: PREINCUBATION); “inactive; negative” under setting [1]; “inactive; negative” (Test System: AMES SALMONELLA TYPHIMURIUM, Strain/Indicator: TA98, Metabolic Activation: HAMSTER, LIVER, S-9, AROCLOR 1254 (30%), Method: PREINCUBATION); “inactive; negative” under setting [2]; “inactive; negative” under setting [3]; “inactive; negative” (Test System: AMES SALMONELLA TYPHIMURIUM, Strain/Indicator: TA98, Metabolic Activation: RAT, LIVER, S-9, AROCLOR 1254 (30%), Method: PREINCUBATION). Also, the mutagenic call runs as follows: under setting [4], “inactive; negative”; (Test System: AMES SALMONELLA TYPHIMURIUM, Strain/Indicator: TA100, Metabolic Activation: HAMSTER, LIVER, S-9, AROCLOR 1254 (30%), Method: PREINCUBATION) “inactive; negative”; under setting [5], “inactive; negative”; under setting [6], “inactive; negative”; (Test System: AMES SALMONELLA TYPHIMURIUM, Strain/Indicator: TA100, Metabolic Activation: RAT, LIVER, S-9, AROCLOR 1254 (30%), Method: PREINCUBATION) “inactive; negative”; (Test System: AMES SALMONELLA TYPHIMURIUM, Strain/Indicator: TA1535, Metabolic Activation: HAMSTER, LIVER, S-9, AROCLOR 1254 (10 OR 30%), Method: PREINCUBATION) “inactive; negative”. The mutagenic call by setting is: under setting [7], “inactive; negative”; (Test System: AMES SALMONELLA TYPHIMURIUM, Strain/Indicator: TA1535, Metabolic Activation: RAT, LIVER, S-9, AROCLOR 1254 (10 OR 30%), Method: PREINCUBATION) “inactive; negative”.
For the compound `CCCCOc1ccc2nc3cc(Cl)ccc3c(NCCCNCCCl)c2n1`, the mutagenic call reads like this: under setting [8], “active; positive”; under setting [9], “inactive; negative”; (Test System: AMES SALMONELLA TYPHIMURIUM, Strain/Indicator: TA1535, Metabolic Activation: NONE, Method: STANDARD PLATE) “inactive; negative”; (Test System: AMES SALMONELLA TYPHIMURIUM, Strain/Indicator: TA1536, Metabolic Activation: NONE, Method: STANDARD PLATE) “active; positive”; (Test System: AMES SALMONELLA TYPHIMURIUM, Strain/Indicator: TA1537, Metabolic Activation: NONE, Method: STANDARD PLATE) “active; positive”; (Test System: AMES SALMONELLA TYPHIMURIUM, Strain/Indicator: TA1538, Metabolic Activation: NONE, Method: STANDARD PLATE) “active; positive”.
Turning to `COc1ccc(/C=C/c2ccc([N+](=O)[O-])cc2)cc1`, the mutagenic call reads like this: (Test System: AMES SALMONELLA TYPHIMURIUM, Strain/Indicator: TA98(NR), Metabolic Activation: NONE, Method: STANDARD PLATE) “inactive; negative”; (Test System: AMES SALMONELLA TYPHIMURIUM, Strain/Indicator: TA98 (NR), Metabolic Activation: S-9, Method: STANDARD PLATE) “active; positive”; under setting [8], “active; positive”; (Test System: AMES SALMONELLA TYPHIMURIUM, Strain/Indicator: TA98, Metabolic Activation: S-9, Method: STANDARD PLATE) “active; positive”; (Test System: AMES SALMONELLA TYPHIMURIUM, Strain/Indicator: TA100 (NR), Metabolic Activation: NONE, Method: STANDARD PLATE) “inactive; negative”; (Test System: AMES SALMONELLA TYPHIMURIUM, Strain/Indicator: TA100 (NR), Metabolic Activation: S-9, Method: STANDARD PLATE) “inactive; negative”. The mutagenic call under setting [9] is “active; positive” and the mutagenic call (Test System: AMES SALMONELLA TYPHIMURIUM, Strain/Indicator: TA100, Metabolic Activation: S-9, Method: STANDARD PLATE) is “active; positive”.
Regarding `Cc1ccc2ccc3ccccc3c2c1C`, the mutagenic call is, setting by setting: under setting [8], “inactive; negative”; (Test System: AMES SALMONELLA TYPHIMURIUM, Strain/Indicator: TA98, Metabolic Activation: RAT, LIVER, S-9, AROCLOR 1254, Method: STANDARD PLATE) “inactive; negative”; under setting [9], “inactive; negative”; (Test System: AMES SALMONELLA TYPHIMURIUM, Strain/Indicator: TA100, Metabolic Activation: RAT, LIVER, S-9, AROCLOR 1254, Method: STANDARD PLATE) “inactive; negative”.
`OC1C2(Cl)C3(Cl)C4(Cl)C(Cl)(Cl)C5(Cl)C3(Cl)C1(Cl)C5(Cl)C24Cl` (stereo not drawn): the mutagenic call by setting is: (End Point: IN VITRO CHROMOSOMAL ABERRATIONS, Test System: CHINESE HAMSTER OVARY CELLS, Metabolic Activation: NONE) “inactive; negative”; under setting [1], “inactive; negative”; under setting [2], “inactive; negative”; under setting [3], “inactive; negative”; under setting [4], “inactive; negative”; under setting [5], “inactive; negative”. Also, the mutagenic call by setting is: under setting [6], “inactive; negative”; (Test System: AMES SALMONELLA TYPHIMURIUM, Strain/Indicator: TA1535, Metabolic Activation: HAMSTER, LIVER, S-9, AROCLOR 1254 (10%), Method: PREINCUBATION) “inactive; negative”; under setting [7], “inactive; negative”; (Test System: AMES SALMONELLA TYPHIMURIUM, Strain/Indicator: TA1535, Metabolic Activation: RAT, LIVER, S-9, AROCLOR 1254 (10%), Method: PREINCUBATION) “inactive; negative”; (Test System: AMES SALMONELLA TYPHIMURIUM, Strain/Indicator: TA1537, Metabolic Activation: HAMSTER, LIVER, S-9, AROCLOR 1254 (10%), Method: PREINCUBATION) “inactive; negative”; (Test System: AMES SALMONELLA TYPHIMURIUM, Strain/Indicator: TA1537, Metabolic Activation: NONE, Method: PREINCUBATION) “inactive; negative”. The mutagenic call (Test System: AMES SALMONELLA TYPHIMURIUM, Strain/Indicator: TA1537, Metabolic Activation: RAT, LIVER, S-9, AROCLOR 1254 (10%), Method: PREINCUBATION) is “inactive; negative”.
`O=CNc1ccc(Oc2ccccc2)cc1`: the mutagenic call is, setting by setting: under setting [9], “inactive; negative”; (Test System: AMES SALMONELLA TYPHIMURIUM, Strain/Indicator: TA100, Metabolic Activation: RAT, LIVER, S-9, KANECLOR 500, Method: STANDARD PLATE) “active; positive”.
